From patent US20250171511A1, “ANTIVIRAL PEPTIDES AND METHODS OF USE THEREOF” (Versitech Limited, priority 2021, published 2025)
Where no end group is shown, it is not given here. 4MPA = not defined here

System: SARS-CoV-2 Delta variant
Assay type: in vivo, hamster
Conditions: 6 h exposure, 4 hamsters

## GAICHPVFCPRRYKQIGTCGLPGTKCCKKP-4MPA (cysteine pairing not given here; reading uncertain; also: printed as GAICHPVFCPRRYKQIGTCGLPGTKCCKKP-4MPA) [Peptide 4H30]
  transmission to naïve contact hamsters: 25%
